# Earlier results in patent US20070010487A1 (priority 2005, published 2007).
# Biological target: P-gp efflux (Homo sapiens, UniProt P08183)
# Sequence (P08183 whole entry): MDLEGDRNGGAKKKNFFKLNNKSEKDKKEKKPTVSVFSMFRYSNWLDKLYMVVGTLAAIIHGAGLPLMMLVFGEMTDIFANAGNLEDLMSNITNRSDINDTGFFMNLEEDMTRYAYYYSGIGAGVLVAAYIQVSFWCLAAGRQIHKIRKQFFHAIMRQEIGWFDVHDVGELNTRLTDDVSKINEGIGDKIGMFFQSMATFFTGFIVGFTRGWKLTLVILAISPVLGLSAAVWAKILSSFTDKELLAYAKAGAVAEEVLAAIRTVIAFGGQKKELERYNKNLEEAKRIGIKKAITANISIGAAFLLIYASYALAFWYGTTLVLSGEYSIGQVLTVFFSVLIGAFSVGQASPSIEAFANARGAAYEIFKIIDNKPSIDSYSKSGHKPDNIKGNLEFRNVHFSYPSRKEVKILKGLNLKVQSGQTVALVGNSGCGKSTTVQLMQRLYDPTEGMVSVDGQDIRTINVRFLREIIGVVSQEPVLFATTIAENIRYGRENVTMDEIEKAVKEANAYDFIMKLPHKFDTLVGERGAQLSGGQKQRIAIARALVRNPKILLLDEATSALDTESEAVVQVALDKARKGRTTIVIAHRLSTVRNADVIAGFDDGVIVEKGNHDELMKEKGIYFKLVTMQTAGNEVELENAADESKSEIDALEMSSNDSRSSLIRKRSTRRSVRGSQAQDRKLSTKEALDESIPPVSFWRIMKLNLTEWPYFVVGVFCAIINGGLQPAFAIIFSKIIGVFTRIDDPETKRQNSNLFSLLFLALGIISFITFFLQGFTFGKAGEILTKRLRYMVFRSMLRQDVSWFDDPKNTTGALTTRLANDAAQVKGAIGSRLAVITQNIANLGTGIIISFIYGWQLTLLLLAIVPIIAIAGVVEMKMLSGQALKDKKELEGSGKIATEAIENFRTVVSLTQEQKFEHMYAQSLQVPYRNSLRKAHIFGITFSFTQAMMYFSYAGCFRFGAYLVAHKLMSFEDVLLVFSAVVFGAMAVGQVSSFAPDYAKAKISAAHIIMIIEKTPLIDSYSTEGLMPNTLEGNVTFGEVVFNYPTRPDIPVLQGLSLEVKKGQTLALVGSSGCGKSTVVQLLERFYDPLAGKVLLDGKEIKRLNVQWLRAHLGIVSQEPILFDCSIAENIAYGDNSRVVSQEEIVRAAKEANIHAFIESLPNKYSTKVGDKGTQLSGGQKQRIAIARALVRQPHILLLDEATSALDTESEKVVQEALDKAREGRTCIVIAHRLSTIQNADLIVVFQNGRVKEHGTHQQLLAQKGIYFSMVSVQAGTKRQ
structure (smiles),measurement,value
O[C@@H](COc1cccc2ncccc12)CN1CCN([C@@H]2c3ccccc3[C@@H]3[C@H](c4ccccc42)C3(F)F)CC1 [Zosuquidar],substrate for P-gp efflux,does not appear to be a substrate for P-gp efflux
